In general, melting point refers to the temperature of the solid-liquid transition.

`O=[N+]([O-])c1ccccc1Sc1ccncc1`: the melting point lay in the range of 119 to 122 °C. Compound `CSc1ccc(C(=O)O)c([N+](=O)[O-])c1` yielded a melting point of 165 to 168 °C. `Cc1ccc(C(=O)Nc2c(NC(=O)CN3CCN(CCO)CC3)ccc3c2C(=O)c2ccccc2C3=O)cc1`: the melting point lay within 210 to 211 °C. Compound `O=C1C=CC(OCc2ccccc2)N1S(=O)(=O)c1ccccc1` (centres undefined) yielded a melting point of 56 to 58 °C. In turn, `CCCOc1ccc(CCNC(=O)C=Cc2ccc(Cl)cc2Cl)cc1OCCC` displayed a melting point of 132 to 134 °C. On to `O=C(N[C@H]1CCCNC1=O)c1cc(F)cc(F)c1`, for which the melting point lay in the range of 198 to 199 °C. In turn, `CCOc1ccc(C=Nc2ccc(S(=O)(=O)NC(C)(C)C)cc2)cc1` gave a melting point of 188 °C. Regarding `CC(=O)OC[C@H]1OCC(=NO)[C@@H](OC(C)=O)[C@@H]1OC(C)=O`, the melting point lay in the range of 90 to 92 °C.

In turn, `CCOc1cc2c(cc1OCC)CCCC(C(=O)N1CCN(Cc3cc(OC)c(OC)c(OC)c3)CC1)=C2` yielded a melting point of 133 to 134 °C.

`COc1cc2c(cc1OC)C(=O)C(=NO)C2` returned a melting point of 240 °C. In turn, `CCOCCOCCn1ccc2c1CC(c1ccccc1Cl)C1C(=O)NC(=O)C21` (centres undefined) showed a melting point of 158 to 162 °C. As for `O=C(Nc1ccc(C(=O)N2Cc3cccn3Cc3ccccc32)cc1)c1cc(Cl)cc(Cl)c1Cl`, the melting point was 231 to 234 °C. Then `CCC(=C1SCN(C)CS1)c1ccc(Oc2ccccc2)cc1`, with 96 to 96.5 °C; and `COc1cc2c(cc1Nc1ncc(Cl)c(Nc3cc(C(N)=O)ccc3OC)n1)CCN(C(=O)CN(C)C)CC2`, with 226 to 233 °C; and `O=C(O)C=CSc1c[nH]c2ccccc12`, with 172 to 173 °C.

For the compound `CC(C)n1c(-c2ccc(F)cc2)c(/C=C/C(=O)O)c2ccccc2c1=O`, the melting point was in the range of 233 to 234 °C. Turning to `CCOC(=O)C1=C(C)NC(C#N)=C(C(=O)OCC)C1c1cccc([N+](=O)[O-])c1` (centres undefined), the melting point was in the range of 174 to 177 °C. As to `CN1C(=O)N(C)S(=O)(=O)N(c2ccc(Cl)cc2)C1=O`, the melting point was 82 to 84 °C. Compound `CSC1=C([N+](=O)[O-])CCCN1` showed a melting point of 230 to 232 °C. The compound `O=C1C(c2ccccc2)=C(c2ccccc2)C(=O)N1c1cccc(Cl)c1` came in with a melting point of 144 to 145 °C. `O=C1Nc2cc(C(F)(F)F)ccc2S(=O)(=O)c2ccccc21` gave a melting point of 253 to 254 °C.

With `CN1CCN(S(=O)(=O)c2ccc(Br)s2)CC1`, the melting point stood at 122 °C. With `CC(c1ccccc1)N1CC(CCl)C(c2ccccc2)(c2ccccc2)C1=O` (centres undefined) the figure was 115 to 120 °C. In turn, `CNC(=O)c1ccccc1Nc1nc(Nc2ccc3c(c2)OCCNC3=O)ncc1Cl` registered a melting point of 293 to 295 °C. As for `NC(=O)c1[nH]c2ccccc2c1Sc1ccccc1`, the melting point lay in the range of 197 to 198 °C.

With `Cc1cc2c(c3ccc(=O)[nH]c13)O[C@@H](CN)[C@@H]2CO` (racemic), the melting point is greater than 300 °C.

For the compound `C#Cc1cccc(NC(=O)c2cc(-c3ccc(F)cc3F)ccc2O)c1`, the melting point lay within 215 to 216 °C.

With `COCCNc1c([N+](=O)[O-])cc(C(F)(F)F)c(Cl)c1[N+](=O)[O-]`, the melting point is 106 to 108 °C. On to `O=C(Nc1ccc2[nH]c(=O)oc2c1)C(=O)N1CCC(Cc2ccc(C(F)(F)F)cc2)CC1`, for which the melting point worked out at 217 °C. Turning to `NS(=O)(=O)c1nc(-c2cccc(Cl)c2)ns1`, the melting point lay within 182 to 184 °C. `CCN(CC)c1nc(CO)cs1`: the melting point lay within 67 to 69 °C.

In the case of `O=C(O)CCCCCc1nn(-c2ccc([N+](=O)[O-])cc2)c2c1CCCC2`, the melting point lay within 119 to 121 °C. For `Cc1cc(C)cc(NC(=O)Cc2ccc(OC3(C(=O)O)CCOCC3)cc2)c1`, the melting point was in the range of 186 to 188 °C.

`CCCCc1ccc(N2CCC(CCOc3ccc(C(=O)OCC)cc3)CC2)nn1` gave a melting point of 91.4 °C. Then `COc1ccc(C2(C#Cc3cnc(N)nc3)CCC(O)CC2)cc1OC1CCCC1` (centres undefined), with 170 to 172 °C; and `O=S(=O)(c1ccc(F)cc1)n1ccc2ccccc21`, with 135 to 137 °C; and `O=S(Cc1cn(C23CC4CC(CC(C4)C2)C3)nn1)c1cc(Cl)ccc1Cl` (centres undefined), with 125 to 128 °C.

Turning to `CCCCN(CCCC)c1ccc(C=CC=Cc2ccc(C=CC3=C(C#N)C(=C(C#N)C#N)OC3(C)C(F)(F)F)s2)c(OC)c1` (centres undefined), the melting point fell in the range of 161 to 162 °C.

`COc1cccc([C@H]2O[C@H](CC(=O)Nc3ccc4oc(CCC(=O)O)cc4c3)C(=O)N(CC(C)(C)CO)c3ccc(Cl)cc32)c1OC` yielded a melting point of 207 to 209 °C. With `CCCSc1csc(C(=O)OC)c1S(=O)(=O)NC(C)(C)C`, the melting point lay in the range of 93 to 98 °C.

On to `CNC(=O)N[C@H]1CC[C@H](CCN2CCN(c3ccc(OC)c(Cl)c3Cl)CC2)CC1`, for which the melting point lay within 237 to 241 °C. `OCC1C(Cl)=Cc2ccccc21` (centres undefined) yielded a melting point of 104 to 105 °C. Then `Clc1cc(Cl)cc(-c2n[nH]cc2Cl)c1`, with 192 °C; and `Cc1ccc(Cn2cnc3c(-c4ccco4)ncnc32)cc1`, with 166 to 167 °C; and `CN1C(=O)C2CC(c3ccc([N+](=O)[O-])cc3)(C2)C1=O`, with 185 to 188 °C. The compound `O=C1NC(=O)C(c2c[nH]c3ccccc23)C1c1cc2c3c(ccn3CCC2)c1` (centres undefined) yielded a melting point of 141 to 145 °C.

As for `CCOC(=O)c1sc(Oc2ccc(NC(=O)OC(C)(C)C)cc2)c2c1CCc1cnn(C)c1-2`, the melting point lay in the range of 186 to 187 °C. In the case of `CCOC(=O)c1c(-c2ccncc2)[nH]c(-c2ccncc2)c1C`, the melting point is 206 to 208 °C.

On to `O=[N+]([O-])c1ccc(Br)c(SC(F)(F)F)c1`, for which the melting point is 118 °C. In turn, `CCOC(=O)CC1CN=C(c2cc3cccc(N(C)S(=O)(=O)c4cccnc4)c3[nH]2)S1` (centres undefined) displayed a melting point of 146 to 147 °C. `COc1cc2c(Nc3ccc(Cl)cc3F)ncnc2cc1OCCCn1ccc(=O)cc1` registered a melting point greater than 250 °C. With `O=C(O)c1ccc(-c2nc(-c3ccncc3)cs2)cc1` the figure was greater than 300 °C; with `OC1CSC(Oc2cc(-c3ccc(F)nc3)cnc2F)C(O)C1O` (centres undefined), 158 to 159 °C; with `COc1cc2c3c(Br)cc(OC)c(OC)c3n(S(C)(=O)=O)c2cc1OC`, 178 to 179 °C. The compound `CN1CCN(c2ccc(OCc3cc(CCC(=O)O)c4c(c3)CC(NS(=O)(=O)c3ccc(Cl)cc3)CC4)cc2)CC1` (centres undefined) displayed a melting point of 148 °C.

The compound `O=c1c2cc(F)c(N3CCCC3)nc2n(Cc2ccccc2)c(=O)n1OCc1ccccc1` registered a melting point of 171 to 172 °C. In the case of `COc1ccc(C(=O)Nc2ccc(F)cc2)cc1Nc1cc(C)cc(C)c1`, the melting point lay within 199 to 200 °C. For the compound `CCNC(=O)n1nc(Oc2c(Cl)cc(C(F)(F)F)cc2Cl)cc1-c1ccc(Cl)cc1`, the melting point is 88 to 89 °C. Take `COc1cc(CN2C(=O)CN(C)C2=O)cc(OC)c1-c1ccc(C[C@H](NC(=O)c2c(Cl)cccc2Cl)C(=O)O)cc1`: the melting point amounted to 248 °C.

Compound `CCCn1c(COCC)nc2c(N)nc3ccc(OCc4cccnc4)cc3c21` yielded a melting point of 190 to 191 °C. `ON=C1CN2CCC1CC2`: the melting point fell in the range of 117 to 119 °C. On to `Cc1noc(C)c1S(=O)(=O)n1c(=O)oc2ccccc21`, for which the melting point fell in the range of 133 to 135 °C. Consider `COC(=O)c1ccc(SC)c(N)c1`, for which the melting point lay within 63 to 65 °C. Take `CNc1nc2c(s1)C(=O)CC(C)(C)C2`: the melting point lay in the range of 217 to 218 °C. In turn, `CCOCc1nc2c(N)nc3cc(-c4cccnc4)ccc3c2n1CCNS(C)(=O)=O` registered a melting point of 233 to 235 °C.

Turning to `CC(C)C(N)=C(C#N)C#N`, the melting point fell in the range of 163 to 164 °C. In turn, `C=CCN(CC=C)Cc1nc(-c2ncn3c2CN(C)C(=O)c2c(Cl)cccc2-3)no1` gave a melting point of 126 to 130 °C.

Compound `Cc1cc(-c2ccc(OC(F)(F)F)cc2)ccc1C1COC(c2c(F)cccc2F)=N1` (centres undefined) had a melting point of 78.5 to 79 °C.

The compound `Cc1c(C)c(N2Cc3cc4c(cc3C2)OCO4)c(C)c2c1OC(C)(C)C2c1ccc(C(C)C)cc1` (centres undefined) had a melting point of 175 to 177 °C. The compound `CSc1ccccc1C1C(=O)c2ccccc2C1=O` showed a melting point of 191 to 193 °C. In turn, `COC(=N)c1ccc(-c2ccccc2[N+](=O)[O-])o1` displayed a melting point of 107 to 108 °C. As for `CC(C)(C)OC(=O)N1CCC(c2ccc(COc3ccc([N+](=O)[O-])cc3)nc2)CC1`, the melting point was in the range of 149 to 150 °C. In the case of `CNC(=O)c1c(OC(C)C)c2cc(OC)ccc2n1C`, the melting point fell in the range of 85 to 86 °C. Turning to `Cc1ccnc2c1n(C(C)C)c(=O)n2-c1ccc(Oc2nc3cccnc3n2C)cc1`, the melting point lay in the range of 270 to 271 °C. On to `Nc1ccncc1Oc1ccc2ccccc2c1`, for which the melting point lay within 117 to 118 °C.

As for `CCNC(=O)c1cc(NS(=O)(=O)c2ccc(I)cc2)ccc1Oc1cncc(Cl)c1`, the melting point is 154 to 156 °C. For the compound `CC(C)c1ccn2nc(S(=O)(=O)Cl)nc2n1`, the melting point lay in the range of 60 to 62 °C. With `Cn1cc(-c2cccc(C#N)c2)c(=O)c(-c2cccc(C#N)c2)c1` the figure was 322 to 327 °C. On to `c1ccc(C(c2ccccc2)N2CC2)cc1`, for which the melting point lay in the range of 56 to 58 °C. Take `Cc1noc(C(=O)NCCc2ccc(S(N)(=O)=O)cc2)n1`: the melting point lay within 218 to 220 °C.

`COc1cc2ccc(-c3ccccc3)cc2cc1SC` returned a melting point of 124 to 125 °C. Then `Cc1ccccc1C(=O)Oc1cc(O)ccn1`, with 116 to 119 °C; and `Nc1ccc(Br)c(-c2nc3ncccc3o2)c1`, with 172 to 174 °C.

Regarding `C#CCOC(=O)c1cc(C)oc1C`, the melting point lay in the range of 35 to 37 °C. For `CC(C)c1ccc(NC(=O)OC(C)(C)C)c(C(=O)O)c1`, the melting point is 175 °C. `CSc1ccc(C2=NNC(C(=O)OC(C)(C)C)S2)cc1` (centres undefined) displayed a melting point of 71 to 72 °C.

Compound `CCOC(=O)c1cc(NCc2c(C)cccc2C)c2nc(C)n(OC)c2c1` yielded a melting point of 165 to 166 °C.

The compound `CC#CCOc1ccc(S(=O)(=O)C2(C(=O)NO)CCN(Cc3cccnc3)CC2)cc1` registered a melting point of 115 °C. In turn, `CCCCNCc1cccc(OCCCNc2nc(N)nn2C)c1` had a melting point of 99.5 to 101 °C.
